Experimental data published in PubChem BioAssay (NCI).
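The compound was tested at five concentrations on cells cultured in 96-well plates, with a 48-hour exposure period. At the GI50, growth is halved. TGI is the concentration that stops growth completely.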

Experiments:
Test in all cases: growth of human tumour cells (NCI), 48 h
[1] = system: DU-145 prostate
[2] = system: HCT-15 colon
[3] = system: HL-60(TB) leukemia
[4] = system: HS 578T breast
[5] = system: KM12 colon
[6] = system: MOLT-4 leukemia
[7] = system: OVCAR-4 ovarian
[8] = system: SF-268 CNS
[9] = system: SK-MEL-2 melanoma
[10] = system: SK-MEL-5 melanoma

Row | SMILES | GI50 [1] [µM] | TGI [1] [µM] | GI50 [2] [µM] | TGI [2] [µM] | GI50 [3] [µM] | TGI [3] [µM] | GI50 [4] [µM] | TGI [4] [µM] | TGI [5] [µM] | TGI [6] [µM] | TGI [7] [µM] | TGI [8] [µM] | TGI [9] [µM] | TGI [10] [µM] | GI50 [5] [µM] | GI50 [6] [µM] | GI50 [7] [µM] | GI50 [8] [µM] | GI50 [9] [µM] | GI50 [10] [µM]
1 | CCN1C(=O)C/C(=C\C(C)=O)Nc2ccccc21 | > 100 | > 100 | > 100 | > 100 | > 100 | > 100 | > 100 | > 100 | > 100 | > 100 | > 100 | > 100 | > 100 | > 31.6 | – | – | – | – | – | –
2 | COc1cccc(-c2nn(-c3ccccc3)cc2-c2ccnc(NCCNS(=O)(=O)c3ccc(Cl)cc3)c2)c1 | 7.55 | > 100 | 3.86 | > 100 | 2.56 | 17.9 | 5.73 | > 100 | > 100 | 9 | > 100 | > 100 | 26.9 | 3.88 | 3.72 | 2.56 | 4.15 | 5.49 | 3.84 | 1.94
3 | COc1ccc(C(=O)Cn2c(C(=O)c3ccc(Cl)cc3)nc3ccccc32)cc1 | > 100 | > 100 | 3.88 | > 100 | 3.11 | > 53.3 | 3.29 | > 23.7 | > 100 | > 100 | > 100 | > 100 | > 100 | > 100 | 4.18 | 3.83 | > 84.1 | > 24.4 | > 32.7 | 5.95
4 | Oc1c(CN2CCC(N3CCOCC3)CC2)cc(Cc2cc(CN3CCC(N4CCOCC4)CC3)c(O)c3ncccc23)c2cccnc12 | 0.612 | > 100 | 0.633 | 26.4 | 0.789 | 3.71 | 10 | 48 | > 100 | 12.1 | > 100 | 38.1 | 30.3 | 5.11 | 0.428 | 0.49 | 0.434 | 0.343 | 4.64 | 1.59
5 | O=[N+]([O-])c1ccc(N2CCN(Cc3ccccc3)CC2)c2c1no[n+]2[O-] | 1.57 | 2.98 | 0.805 | 2.46 | 0.473 | 2.99 | 2.32 | 7.99 | 3.05 | 2.39 | 3.07 | 3.22 | 4.76 | 3.73 | 1.48 | 0.194 | 1.37 | 1.42 | 2.22 | 1.73
6 | O=C(/C=C/c1ccco1)c1ccc(Nc2nc(Nc3ccc(F)cc3)nc(Nc3ccc(Cl)cc3)n2)cc1 | 30.9 | > 74.7 | 9.47 | > 100 | > 42.3 | 98.8 | 26 | > 91.4 | 43.4 | > 49.7 | > 88.3 | > 86.4 | > 100 | > 100 | 16.7 | > 19.8 | 27.1 | 34.8 | > 49.8 | 23.7
